# Data reported in ChEMBL document CHEMBL1201862, “PubChem BioAssay data set” (2004).
# Activity calls are given as the source filed them.
# Tests used:
# Vero = test: West Nile virus antiviral activity, cell-based, CPE readout (AID 1621); type: functional; details: Chlorocebus sabaeus
# NADPH oxidase 1 [1] = biological target: T1, NADPH oxidase 1 (Homo sapiens, UniProt Q9Y5S8); test: Late-stage luminescence-based cell-based dose response assay to identify inhibitors of NADPH oxidase 1 (NOX1): Synthesized analogs 3.; type: functional
# T1 sequence (Q9Y5S8 whole entry): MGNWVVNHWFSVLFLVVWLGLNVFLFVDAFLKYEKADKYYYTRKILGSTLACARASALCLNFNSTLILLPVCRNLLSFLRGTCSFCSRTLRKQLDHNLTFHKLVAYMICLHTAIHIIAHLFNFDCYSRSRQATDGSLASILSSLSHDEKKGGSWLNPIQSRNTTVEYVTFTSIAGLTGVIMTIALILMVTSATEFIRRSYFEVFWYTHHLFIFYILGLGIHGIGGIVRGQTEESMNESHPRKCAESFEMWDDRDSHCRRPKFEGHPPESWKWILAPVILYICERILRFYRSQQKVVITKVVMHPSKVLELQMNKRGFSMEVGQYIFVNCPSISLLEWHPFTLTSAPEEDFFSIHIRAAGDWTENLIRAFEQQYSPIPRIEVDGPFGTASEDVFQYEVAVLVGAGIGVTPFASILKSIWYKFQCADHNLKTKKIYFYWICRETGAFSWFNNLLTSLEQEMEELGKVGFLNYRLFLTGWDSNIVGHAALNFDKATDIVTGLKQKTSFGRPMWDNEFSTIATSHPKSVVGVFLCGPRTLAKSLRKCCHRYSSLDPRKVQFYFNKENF
# Aspartyl aminopeptidase = Aspartyl aminopeptidase (Plasmodium falciparum 3D7, UniProt Q8I2J3); test: Counterscreen for inhibitors of M1 and M17 aminopeptidases: QFRET-based biochemical high throughput dose response assay for inhibitors of the Plasmodium falciparum M18 Aspartyl Aminopeptidase (PFM18AAP). [Related PubChem assays: 1619 (Screening assay (M17LAP inhibitors).), 1445 (Screening assay (M1AAP inhibitors).)]
# Aminopeptidase N = biological target: T2, Aminopeptidase N (Plasmodium falciparum FcB1/Columbia, UniProt O96935); test: P. falciparum M1AAP inhibitors, biochemical, fluorogenic H-Leu-NHMec substrate, 1536-well (AID 1445); design: species or system Plasmodium falciparum 3D7, 3D7
# T2 sequence (O96935 whole entry): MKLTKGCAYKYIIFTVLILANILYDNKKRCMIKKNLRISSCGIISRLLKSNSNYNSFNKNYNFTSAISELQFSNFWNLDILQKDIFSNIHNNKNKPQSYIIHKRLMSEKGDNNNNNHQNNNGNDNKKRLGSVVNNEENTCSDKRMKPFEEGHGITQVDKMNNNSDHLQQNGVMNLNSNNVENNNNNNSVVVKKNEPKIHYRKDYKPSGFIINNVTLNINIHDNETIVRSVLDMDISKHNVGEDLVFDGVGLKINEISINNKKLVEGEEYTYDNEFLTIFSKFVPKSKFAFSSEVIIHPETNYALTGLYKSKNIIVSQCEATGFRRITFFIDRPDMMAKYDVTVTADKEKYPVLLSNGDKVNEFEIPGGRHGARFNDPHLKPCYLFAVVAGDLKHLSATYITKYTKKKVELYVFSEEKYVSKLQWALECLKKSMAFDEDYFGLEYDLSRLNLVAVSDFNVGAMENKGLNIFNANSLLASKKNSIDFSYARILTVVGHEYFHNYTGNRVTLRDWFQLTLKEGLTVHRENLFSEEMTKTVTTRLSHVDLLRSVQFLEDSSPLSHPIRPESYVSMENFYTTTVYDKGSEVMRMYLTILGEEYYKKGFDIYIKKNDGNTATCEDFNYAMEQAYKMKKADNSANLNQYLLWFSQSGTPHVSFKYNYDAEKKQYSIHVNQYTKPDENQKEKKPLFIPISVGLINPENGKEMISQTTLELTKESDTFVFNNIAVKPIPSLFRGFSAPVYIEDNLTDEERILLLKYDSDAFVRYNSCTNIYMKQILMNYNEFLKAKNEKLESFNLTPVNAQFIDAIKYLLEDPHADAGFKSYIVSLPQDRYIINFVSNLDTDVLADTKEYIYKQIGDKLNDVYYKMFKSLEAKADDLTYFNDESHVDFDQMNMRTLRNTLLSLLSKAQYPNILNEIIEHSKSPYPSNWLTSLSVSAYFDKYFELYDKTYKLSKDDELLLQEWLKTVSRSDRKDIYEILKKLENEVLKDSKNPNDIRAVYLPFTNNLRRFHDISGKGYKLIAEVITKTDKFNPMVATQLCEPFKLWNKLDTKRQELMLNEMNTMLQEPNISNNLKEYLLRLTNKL
# Procathepsin L = Procathepsin L (Homo sapiens, UniProt P07711); test: cathepsin L inhibitors, dose response, counter-screen for M1/M17 aminopeptidase inhibitor project, biochemical, QFRET, 1536-well (AID 2214)
# [2] = biological target: Glyceraldehyde-3-phosphate dehydrogenase (Homo sapiens, UniProt P04406)
# Bcl-2-related protein A1 [3] = biological target: T3, Bcl-2-related protein A1 (Mus musculus, UniProt Q07440); test: Bfl-1 inhibitors blocking BH3 peptide binding, confirmation, biochemical, TR-FRET, mouse Bfl-1 (AID 621);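 also: TR-FRET binding of GST-Bfl-1 to FITC-labelled Bid peptide via terbium antibody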
# T3 sequence (Q07440 whole entry): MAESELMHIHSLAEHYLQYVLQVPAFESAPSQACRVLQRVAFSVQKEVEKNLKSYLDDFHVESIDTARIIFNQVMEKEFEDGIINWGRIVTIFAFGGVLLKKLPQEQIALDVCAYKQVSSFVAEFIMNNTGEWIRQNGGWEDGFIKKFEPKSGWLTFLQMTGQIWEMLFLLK
# Bcl-2-related protein A1 [4] = biological target: T3, Bcl-2-related protein A1; test: Bfl-1 binding inhibitors, SAR follow-up, biochemical, fluorescence polarization (AID 1070)
# [5] = biological target: Sphingosine 1-phosphate receptor 2 (Homo sapiens, UniProt O95136); test: Dose Response Cell Based Assay for Agonists of the S1P2 Receptor of Purchased Analogues. [Related pubchem assays: 729, 843, 854, 736 ]; type: functional
# NADPH oxidase 1 [6] = biological target: T1, NADPH oxidase 1; test: Late-stage luminescence-based cell-based dose response assay to identify inhibitors of NADPH oxidase 1 (NOX1): Purchased analogs 2.; type: functional
# [7] = Luminescence Cell-Based Dose Confirmation HTS to Identify Activators of 5'UTR Stem-Loop Driven Alpha-Synuclein mRNA Translation in H4 Neuroglioblastoma Cells. [Related pubchem assays: 1829 (Project Summary), 1814 (Primary HTS)]; type: functional
# [8] = Luminescence Cell-Based Dose Response HTS to Identify Activators of Luciferase Translation or Activity in H4 […] Cells. [Related pubchem assays: 1829 (Project Summary), 1814 (Primary HTS)]; type: functional
# H4 = test: Luminescence Cell-Based Dose Response HTS to Identify Activators of 5'UTR Stem-Loop Driven Prion Protein mRNA Translation in H4 Neuroglioblastoma Cells. [Related pubchem assays: 1829 (Project Summary), 1814 (Primary HTS)]; type: functional; details: Homo sapiens
# [9] = A High Throughput Confirmatory Assay used to Identify Novel Compounds that Inhibit Mycobacterium Tuberculosis in the absence of Glycerol.; type: functional
# Bcl-2-related protein A1 [10] = biological target: T3, Bcl-2-related protein A1; test: Bfl-1 inhibitors, primary screen, biochemical, fluorescence polarization, FITC-Bid, mouse (AID 432)
# Ephrin type-A receptor 4 = Ephrin type-A receptor 4 (Mus musculus, UniProt Q03137); test: inhibitors of EphA4 binding to KYL peptide, primary screen, biochemical, colorimetric, mouse EphA4 (AID 689); type: functional
# Cytochrome P450 2D6 = Cytochrome P450 2D6 (Homo sapiens, UniProt P10635);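 also: CYP2D6 member of a cytochrome P450 panel assay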
# [11] = tested on: Streptococcus sp. 'group A'; test: growth inhibition of control SK(-) GAS strain, dose response, counter-screen for streptokinase expression inhibitor project, luminescence, kanamycin, BacTiterGlo, confirmation (AID 1900); type: functional, organism-based
# [12] = cytotoxicity in HPDE-C7 cells, cell-based, fluorescence, HTS (AID 430); type: functional; details: Homo sapiens
# [13] = cytotoxicity in KRAS-transformed pancreatic duct cells, primary screen, cell-based, fluorescence, HTS (AID 431); type: functional; details: Homo sapiens;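 also: cell line used: HPDE-C7K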
# Streptococcus = test: Group A Streptococcus viability loss, dose response, counter-screen for streptokinase expression inhibitor project, luminescence, BacTiterGlo (AID 1915); type: functional, organism-based;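 also: potency for reduction of bacterial viability or growth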
# [14] = biological target: E3 ubiquitin-protein ligase Mdm2 (Homo sapiens, UniProt Q00987); test: enhancers of MDM2-luciferase reporter signal, concentration-effect titration, project on inhibitors of MDM2 ubiquitin ligase, cellular assay, luminescent readout, 384-well plate format (AID 1394); type: functional;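 also: MDM2 E3 inhibitors raise luminescence so EC50 is for signal enhancement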
# NADPH oxidase 1 [15] = biological target: T1, NADPH oxidase 1; type: functional, cell-based
# Genome polyprotein = Genome polyprotein (Hepatitis C virus, UniProt Q2Q167); test: HCV core protein dimerization inhibitors, dose response, biochemical, TR-FRET (AID 2159); design: species or system Hepacivirus hominis;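 also: blocks dimerization of HCV core protein measured by TR-FRET between tagged core106 pairs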
# [16] = biological target: T4, Dual specificity protein phosphatase 3 (Homo sapiens, UniProt P51452); test: VHR1 phosphatase inhibitors, primary screen, biochemical, absorbance, uHTS (AID 1654)
# [17] = biological target: Guanyl-specific ribonuclease T1 (Aspergillus oryzae (strain ATCC 42149 / RIB 40), UniProt P00651); test: RNase T1 inhibitors, dose response, counter-screen for TPT1 inhibitor project, biochemical, fluorescence polarization, 1536-well (AID 2167)
# [18] = biological target: Likely tRNA 2'-phosphotransferase (Candida albicans (strain SC5314 / ATCC MYA-2876) (Yeast), UniProt Q5A7N4); test: TPT1 tRNA phosphotransferase inhibitors, dose response, biochemical, fluorescence polarization (AID 2160)
# [19] = biological target: T4, Dual specificity protein phosphatase 3; test: VHR1 phosphatase inhibitors, biochemical (AID 1878)
# [20] = biological target: Voltage-gated inwardly rectifying potassium channel KCNH2 (Homo sapiens, UniProt Q12809); test: hERG protection from proarrhythmic block, potency, dose response, cell-based, thallium flux (AID 2121); type: ADME
# [21] = biological target: T5, Dual specificity protein phosphatase 6 (Rattus norvegicus, UniProt Q64346); test: MKP-3 phosphatase inhibitors, primary screen, biochemical, rat enzyme, in vitro (AID 425)
# T5 sequence (Q64346 whole entry): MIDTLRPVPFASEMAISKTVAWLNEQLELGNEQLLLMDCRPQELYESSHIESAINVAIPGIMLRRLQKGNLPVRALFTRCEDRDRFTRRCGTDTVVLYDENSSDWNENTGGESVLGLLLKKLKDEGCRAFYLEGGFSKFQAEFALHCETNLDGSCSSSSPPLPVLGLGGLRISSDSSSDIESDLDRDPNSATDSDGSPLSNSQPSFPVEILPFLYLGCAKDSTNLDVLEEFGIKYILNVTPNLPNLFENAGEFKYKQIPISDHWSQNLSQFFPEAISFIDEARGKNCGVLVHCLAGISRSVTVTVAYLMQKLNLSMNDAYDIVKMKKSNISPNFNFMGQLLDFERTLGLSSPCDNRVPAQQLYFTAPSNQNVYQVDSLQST
# [22] = biological target: Luciferin 4-monooxygenase (Photinus pyralis, UniProt P08659); test: Counter Screen for Luciferase-based Assay Positives. [Related pubchem assays: 620, 618, 411 ]
# [23] = Luminescence Cell-Based Dose Response HTS to Identify Inhibitors of 5'UTR Stem-Loop Driven Prion Protein mRNA Translation in H4 Neuroglioblastoma Cells. [Related pubchem assays: 1827 (Project Summary), 1813 (Primary HTS)]; type: functional
# [24] = inhibitors of SNCA 5'UTR-driven reporter translation, confirmation, H4 neuroglioma cells, luminescence (AID 1988); type: functional, cell-based
# [25] = Luminescence Cell-Based Dose Confirmation HTS to Identify Inhibitors of Polyadenylation.; type: functional
# HT-1080 = test: cytotoxicity in HT1080 fibrosarcoma cells, cell-based, fluorescence readout (AID 620); type: functional; details: Homo sapiens
# T4 sequence (P51452 whole entry): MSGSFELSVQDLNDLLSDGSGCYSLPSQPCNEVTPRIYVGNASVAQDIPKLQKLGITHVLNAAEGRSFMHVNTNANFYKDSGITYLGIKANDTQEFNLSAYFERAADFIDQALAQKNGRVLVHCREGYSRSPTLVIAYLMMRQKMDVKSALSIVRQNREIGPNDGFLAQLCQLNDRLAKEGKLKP
# Chain of Likely tRNA 2'-phosphotransferase (Q5A7N4 whole entry): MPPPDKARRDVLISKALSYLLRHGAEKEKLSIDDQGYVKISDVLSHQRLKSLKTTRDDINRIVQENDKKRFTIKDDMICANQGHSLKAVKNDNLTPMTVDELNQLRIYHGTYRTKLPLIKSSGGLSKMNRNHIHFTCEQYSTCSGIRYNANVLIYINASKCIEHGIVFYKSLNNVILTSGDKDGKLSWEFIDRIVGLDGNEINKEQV
# Chain of Ephrin type-A receptor 4 (Q03137 whole entry): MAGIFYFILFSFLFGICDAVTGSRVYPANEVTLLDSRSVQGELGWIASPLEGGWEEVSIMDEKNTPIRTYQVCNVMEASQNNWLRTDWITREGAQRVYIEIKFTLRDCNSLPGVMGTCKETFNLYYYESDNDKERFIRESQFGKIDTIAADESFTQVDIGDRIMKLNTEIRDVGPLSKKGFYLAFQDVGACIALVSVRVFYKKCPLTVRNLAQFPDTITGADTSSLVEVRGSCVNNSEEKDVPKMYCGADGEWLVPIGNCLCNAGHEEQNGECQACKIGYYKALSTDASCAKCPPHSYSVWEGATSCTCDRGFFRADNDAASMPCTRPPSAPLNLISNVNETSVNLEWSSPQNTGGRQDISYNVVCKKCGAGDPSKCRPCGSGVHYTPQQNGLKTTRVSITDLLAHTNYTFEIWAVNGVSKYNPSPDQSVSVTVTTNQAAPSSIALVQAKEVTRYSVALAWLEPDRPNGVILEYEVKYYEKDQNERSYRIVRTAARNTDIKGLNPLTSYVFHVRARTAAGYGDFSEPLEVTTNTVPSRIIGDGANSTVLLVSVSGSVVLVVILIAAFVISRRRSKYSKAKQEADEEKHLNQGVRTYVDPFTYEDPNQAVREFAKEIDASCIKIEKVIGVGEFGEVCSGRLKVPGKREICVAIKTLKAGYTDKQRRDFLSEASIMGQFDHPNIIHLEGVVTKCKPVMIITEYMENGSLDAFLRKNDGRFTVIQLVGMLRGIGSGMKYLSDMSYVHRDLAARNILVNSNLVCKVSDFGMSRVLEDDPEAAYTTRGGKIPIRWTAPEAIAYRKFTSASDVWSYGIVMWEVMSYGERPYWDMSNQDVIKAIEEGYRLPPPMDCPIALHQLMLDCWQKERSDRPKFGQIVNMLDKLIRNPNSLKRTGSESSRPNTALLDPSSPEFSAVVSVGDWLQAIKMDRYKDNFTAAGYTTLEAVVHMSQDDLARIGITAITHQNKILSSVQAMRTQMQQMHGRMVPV
# Chain of Voltage-gated inwardly rectifying potassium channel KCNH2 (Q12809 whole entry): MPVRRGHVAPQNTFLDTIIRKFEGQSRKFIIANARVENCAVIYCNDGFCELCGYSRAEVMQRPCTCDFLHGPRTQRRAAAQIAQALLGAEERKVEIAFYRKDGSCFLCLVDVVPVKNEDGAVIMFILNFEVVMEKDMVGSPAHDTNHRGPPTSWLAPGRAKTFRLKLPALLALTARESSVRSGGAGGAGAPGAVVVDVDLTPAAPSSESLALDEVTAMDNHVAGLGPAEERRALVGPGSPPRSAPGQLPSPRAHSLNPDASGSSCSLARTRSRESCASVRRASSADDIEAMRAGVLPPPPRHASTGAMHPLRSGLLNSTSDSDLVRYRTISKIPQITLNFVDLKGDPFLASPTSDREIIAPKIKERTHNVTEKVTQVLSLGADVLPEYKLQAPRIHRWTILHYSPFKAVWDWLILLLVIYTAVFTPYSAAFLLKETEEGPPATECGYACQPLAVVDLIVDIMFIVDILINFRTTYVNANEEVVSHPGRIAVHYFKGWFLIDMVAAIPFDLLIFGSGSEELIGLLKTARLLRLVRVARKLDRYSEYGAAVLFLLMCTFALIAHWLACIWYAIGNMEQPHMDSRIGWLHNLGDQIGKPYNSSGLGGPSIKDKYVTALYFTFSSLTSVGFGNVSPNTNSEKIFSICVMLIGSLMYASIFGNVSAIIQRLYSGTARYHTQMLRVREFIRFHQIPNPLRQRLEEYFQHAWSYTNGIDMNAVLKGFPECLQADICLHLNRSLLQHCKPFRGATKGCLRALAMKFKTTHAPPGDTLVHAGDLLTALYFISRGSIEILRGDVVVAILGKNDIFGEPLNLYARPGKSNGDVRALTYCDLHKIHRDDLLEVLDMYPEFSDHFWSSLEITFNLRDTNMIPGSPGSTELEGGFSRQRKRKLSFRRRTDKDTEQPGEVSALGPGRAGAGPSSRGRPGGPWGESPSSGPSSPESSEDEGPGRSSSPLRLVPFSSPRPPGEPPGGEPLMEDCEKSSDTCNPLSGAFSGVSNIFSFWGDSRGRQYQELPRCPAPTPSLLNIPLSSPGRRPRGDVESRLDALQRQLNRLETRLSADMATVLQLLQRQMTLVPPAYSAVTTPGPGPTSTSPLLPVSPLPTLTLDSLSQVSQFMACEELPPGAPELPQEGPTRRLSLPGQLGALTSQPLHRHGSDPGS
# Chain of Sphingosine 1-phosphate receptor 2 (O95136 whole entry): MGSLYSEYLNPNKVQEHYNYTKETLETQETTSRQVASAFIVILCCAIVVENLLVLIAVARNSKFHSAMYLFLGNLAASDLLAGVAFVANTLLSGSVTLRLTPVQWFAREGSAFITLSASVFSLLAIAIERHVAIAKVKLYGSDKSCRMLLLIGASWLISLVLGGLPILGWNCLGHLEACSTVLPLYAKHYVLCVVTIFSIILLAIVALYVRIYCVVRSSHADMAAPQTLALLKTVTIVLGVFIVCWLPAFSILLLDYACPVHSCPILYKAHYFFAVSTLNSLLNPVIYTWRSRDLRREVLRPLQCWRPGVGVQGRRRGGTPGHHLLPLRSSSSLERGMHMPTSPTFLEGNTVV
# Chain of Cytochrome P450 2D6 (P10635 whole entry): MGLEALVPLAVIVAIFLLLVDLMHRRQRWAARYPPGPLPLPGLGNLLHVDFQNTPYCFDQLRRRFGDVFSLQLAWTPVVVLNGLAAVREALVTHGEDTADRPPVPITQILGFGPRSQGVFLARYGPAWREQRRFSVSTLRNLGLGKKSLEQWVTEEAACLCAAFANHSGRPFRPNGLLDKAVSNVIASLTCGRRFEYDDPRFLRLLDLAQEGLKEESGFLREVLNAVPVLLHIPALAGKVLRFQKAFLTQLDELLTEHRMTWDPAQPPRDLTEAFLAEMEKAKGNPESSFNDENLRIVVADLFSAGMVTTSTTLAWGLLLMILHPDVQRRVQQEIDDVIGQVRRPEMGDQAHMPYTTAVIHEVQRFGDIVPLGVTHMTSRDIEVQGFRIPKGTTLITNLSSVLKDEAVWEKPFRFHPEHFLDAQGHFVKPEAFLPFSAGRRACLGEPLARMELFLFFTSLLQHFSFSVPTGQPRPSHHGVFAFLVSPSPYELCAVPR
# Chain of E3 ubiquitin-protein ligase Mdm2 (Q00987 whole entry): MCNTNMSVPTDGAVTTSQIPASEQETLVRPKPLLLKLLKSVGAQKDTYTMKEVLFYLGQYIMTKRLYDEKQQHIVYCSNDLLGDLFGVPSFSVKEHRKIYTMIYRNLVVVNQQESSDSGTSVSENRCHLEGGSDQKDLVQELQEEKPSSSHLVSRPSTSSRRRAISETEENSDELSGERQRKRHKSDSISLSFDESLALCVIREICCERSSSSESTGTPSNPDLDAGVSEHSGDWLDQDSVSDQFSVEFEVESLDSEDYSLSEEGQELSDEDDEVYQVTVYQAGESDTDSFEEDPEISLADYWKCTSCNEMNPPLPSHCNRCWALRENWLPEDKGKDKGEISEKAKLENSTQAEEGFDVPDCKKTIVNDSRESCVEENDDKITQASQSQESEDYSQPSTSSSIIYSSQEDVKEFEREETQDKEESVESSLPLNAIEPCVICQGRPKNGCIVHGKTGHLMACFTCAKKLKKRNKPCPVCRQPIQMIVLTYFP
# Chain of Procathepsin L (P07711 whole entry): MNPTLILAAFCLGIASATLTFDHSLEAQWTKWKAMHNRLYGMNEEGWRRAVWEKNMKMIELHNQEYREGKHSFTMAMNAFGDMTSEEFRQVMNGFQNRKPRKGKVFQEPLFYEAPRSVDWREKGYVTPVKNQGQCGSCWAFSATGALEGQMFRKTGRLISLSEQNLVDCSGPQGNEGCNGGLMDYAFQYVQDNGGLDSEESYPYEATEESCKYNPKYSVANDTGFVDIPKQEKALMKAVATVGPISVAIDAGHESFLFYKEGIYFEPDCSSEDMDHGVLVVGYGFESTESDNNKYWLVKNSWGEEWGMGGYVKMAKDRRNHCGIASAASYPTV
# Chain of Luciferin 4-monooxygenase (P08659 whole entry): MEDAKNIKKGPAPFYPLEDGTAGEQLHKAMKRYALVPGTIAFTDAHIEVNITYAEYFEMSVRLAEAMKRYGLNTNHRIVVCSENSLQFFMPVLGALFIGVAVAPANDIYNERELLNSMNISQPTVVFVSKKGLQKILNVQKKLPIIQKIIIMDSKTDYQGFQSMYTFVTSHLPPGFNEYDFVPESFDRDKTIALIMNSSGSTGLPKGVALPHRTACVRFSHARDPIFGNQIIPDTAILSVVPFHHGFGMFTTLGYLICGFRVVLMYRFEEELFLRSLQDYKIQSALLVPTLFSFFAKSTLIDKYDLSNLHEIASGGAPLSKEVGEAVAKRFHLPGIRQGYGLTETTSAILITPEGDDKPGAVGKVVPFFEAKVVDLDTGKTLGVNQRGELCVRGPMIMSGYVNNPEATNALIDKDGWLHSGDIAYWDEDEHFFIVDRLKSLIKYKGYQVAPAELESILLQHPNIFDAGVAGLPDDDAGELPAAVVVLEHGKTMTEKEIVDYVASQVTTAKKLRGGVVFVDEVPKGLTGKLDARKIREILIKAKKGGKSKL
# Chain of Genome polyprotein (Q2Q167 whole entry): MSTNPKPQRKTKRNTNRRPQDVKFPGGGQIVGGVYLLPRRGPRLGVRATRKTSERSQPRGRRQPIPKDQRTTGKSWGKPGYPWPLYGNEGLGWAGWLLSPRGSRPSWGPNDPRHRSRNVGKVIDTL
compound,measurement,setting,value
Cc1ccc2cc(C#N)c(N3CCCN(C(S)=NCCCN(C)C)CC3)nc2c1,IC50,Vero,24.4 µM (active)
CN1c2ccc(N)cc2Sc2cc(C(=O)c3ccccc3)ccc21,IC50,NADPH oxidase 1 [1],0.201 µM (active)
O=C(O)CCC(=O)N1N=C(c2c(-c3ccccc3)c3cc(Cl)ccc3[nH]c2=O)CC1c1ccccc1 (stereo unspecified),IC50,Aspartyl aminopeptidase,> 73.5 µM (not active)
same,IC50,Aminopeptidase N,4.6 µM (active)
same,IC50,Procathepsin L,> 59.6 µM (not active)
O=C1C(Cl)=C(N2CCCCC2)C(=O)N1c1ccc(Cl)c(Cl)c1,IC50,[2],> 100 µM (not active)
same,IC50,Bcl-2-related protein A1 [3],1.3 µM (active)
same,IC50,Bcl-2-related protein A1 [4],> 100 µM (not active)
Cc1cc(C(=O)COC(=O)Cn2c(=O)oc3ccccc32)c(C)n1Cc1ccccc1,EC50,[5],> 30 µM (not active)
COc1ccc(/C=N/Nc2c(Cl)cc(Cl)cc2Cl)cc1,IC50,NADPH oxidase 1 [6],> 17 µM (not active)
COc1ccc2c(c1)CC/C(=C\C=C\c1ccccc1OC)C2=O,EC50,[7],> 120 µM (not active)
same,EC50,[8],1.99 µM (active)
same,EC50,H4,13.8 µM (active)
same,IC50,[9],> 100 µM (active)
CCSc1nnc(NC(=O)C(C(F)(F)F)C(F)(F)F)s1,IC50,Bcl-2-related protein A1 [10],2.85 µM (active)
same,IC50,Bcl-2-related protein A1 [3],2.66 µM (active)
same,IC50,Ephrin type-A receptor 4,4.1 µM (active)
same,AC50,Cytochrome P450 2D6,25.1 µM (inconclusive)
Oc1nc2ccc(Cl)cc2c(-c2ccccc2)c1N1CCN(c2ccccn2)CC1,EC50,[11],5.29 µM (active)
same,EC50,[12],5.29 µM (active)
same,EC50,[13],8.58 µM (active)
same,EC50,Streptococcus,45.8 µM (active)
CSc1nsc(/C=C/Nc2ccc(F)cc2)c1C#N,EC50,[14],2.4 µM (not active)
Oc1ccccc1-c1nc(-c2ccccc2)c(-c2ccccc2)[nH]1,IC50,NADPH oxidase 1 [15],> 17 µM (not active)
Cc1ccccc1N1C(=O)/C(=C/c2ccco2)C(=O)NC1=S,IC50,Genome polyprotein,4.78 µM (active)
same,IC50,[16],< 1.23 µM (inactive)
same,IC50,[17],> 55.7 µM (not active)
same,IC50,[18],2.44 µM (active)
same,IC50,[19],< 1.23 µM (inactive)
same,EC50,[20],0.71 µM (active)
same,IC50,[21],< 1.23 µM (not active)
O=c1c2sc(-c3ccccc3)cc2nc2n1CCC2,EC50,[22],< 0.2 µM (active)
same,EC50,[23],11.8 µM (inconclusive)
same,EC50,[24],8.3 µM (active)
same,EC50,[25],> 120 µM (not active)
same,EC50,HT-1080,> 50 µM (not active)
